PubChem BioAssay (NCI)
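Exposure lasted 48 hours, with cells grown in 96-well plates and compounds tested at five concentrations. GI50 is the concentration that inhibits growth by half. Definition used: TGI = concentration required for complete inhibition of growth.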

Columns and labels:
Experiment in all cases: inhibition of tumour cell growth, NCI panel, 48 h; in the data active = GI50 below about 0.43 µM; inactive = the rest
[1] = system: HS 578T breast
[2] = system: RPMI-8226 leukemia
[3] = system: NCI-H226 lung
[4] = system: CAKI-1 renal
[5] = system: SK-MEL-28 melanoma
[6] = system: HL-60(TB) leukemia
[7] = system: A498 renal
[8] = system: HOP-92 NSCLC
[9] = system: SNB-19 CNS
[10] = system: SN12C renal
[11] = system: U251 CNS
[12] = system: MCF7 breast
[13] = system: PC-3 prostate
[14] = system: SW-620 colon
[15] = system: DU-145 prostate
[16] = system: LOX IMVI melanoma
[17] = system: SK-MEL-5 melanoma
[18] = system: 786-0 renal
[19] = system: SR leukemia
[20] = system: SF-268 CNS
[21] = system: OVCAR-4 ovarian
[22] = system: OVCAR-3 ovarian
[23] = system: MOLT-4 leukemia
[24] = system: T-47D breast
[25] = system: CCRF-CEM leukemia
[26] = system: IGROV1 ovarian
[27] = system: UO-31 renal
[28] = system: HCT-116 colon
[29] = system: SNB-75 CNS
[30] = system: M14 melanoma
[31] = system: NCI-H522 lung
[32] = system: NCI-H23 lung
[33] = system: TK-10 renal
[34] = system: A549 NSCLC
[35] = system: HCT-15 colon
[36] = system: NCI-H460 lung
[37] = system: SK-MEL-2 melanoma
[38] = system: OVCAR-8 ovarian
[39] = system: BT-549 breast
[40] = system: SF-295 CNS
[41] = system: K-562 leukemia
[42] = system: HOP-62 NSCLC
[43] = system: KM12 colon
[44] = system: SK-OV-3 ovarian
[45] = system: EKVX NSCLC
[46] = system: ACHN renal
[47] = system: COLO 205 colon
[48] = system: SF-539 CNS
[49] = system: HT29 colon
[50] = system: HCC-2998 colon
[51] = system: NCI/ADR-RES ovarian
[52] = system: MDA-MB-231 breast
[53] = system: UACC-62 melanoma
[54] = system: MALME-3M melanoma
[55] = system: MDA-MB-435
[56] = system: RXF 393 renal
[57] = system: UACC-257 melanoma
[58] = system: OVCAR-5 ovarian

Cc1ccc2c(c1)C(C)Cc1c(ncnc1-n1cnc3ccccc31)N2C (stereo not drawn)
16 µM: TGI [42]
13.6 µM: TGI [50]
17.7 µM: TGI [20]
14.8 µM: TGI [51]
12 µM: TGI [36]
12.1 µM: TGI [49]
28.9 µM: TGI [1]
10.2 µM: TGI [17]
17.9 µM: TGI [27]
17.1 µM: TGI [7]
17.5 µM: TGI [45]
0.705 µM: TGI [6]
29.4 µM: TGI [33]
27.4 µM: TGI [3]
12.6 µM: TGI [25]
11.8 µM: TGI [40]
32.2 µM: TGI [24]
12.7 µM: TGI [35]
22.5 µM: TGI [21]
active: GI50 [1] 0.376 µM | GI50 [2] 0.337 µM | GI50 [4] 0.337 µM | GI50 [6] 0.255 µM | GI50 [7] 0.22 µM | GI50 [11] 0.415 µM | GI50 [12] 0.0986 µM | GI50 [13] 0.284 µM | GI50 [14] 0.281 µM | GI50 [19] 0.0649 µM | GI50 [22] 0.313 µM | GI50 [23] 0.426 µM | GI50 [25] 0.267 µM | GI50 [28] 0.407 µM | GI50 [29] 0.3 µM | GI50 [30] 0.242 µM | GI50 [31] 0.204 µM | GI50 [35] 0.414 µM | GI50 [36] 0.38 µM | GI50 [40] 0.189 µM | GI50 [41] 0.0801 µM | GI50 [47] 0.285 µM | GI50 [48] 0.337 µM | GI50 [49] 0.34 µM | GI50 [51] 0.275 µM
28.4 µM: TGI [26]
17.8 µM: TGI [4]
21.9 µM: TGI [10] | TGI [37]
15.7 µM: TGI [30]
10.8 µM: TGI [22] | TGI [31]
11.9 µM: TGI [28]
21 µM: TGI [9]
29 µM: TGI [5]
27.7 µM: TGI [8]
20.6 µM: TGI [39]
11 µM: TGI [19]
15.9 µM: TGI [2] | TGI [11]
13.5 µM: TGI [44] | TGI [48]
inactive: GI50 [3] 3.5 µM | GI50 [5] 12.3 µM | GI50 [8] 6.76 µM | GI50 [9] 0.537 µM | GI50 [10] 0.915 µM | GI50 [15] 0.529 µM | GI50 [16] 0.705 µM | GI50 [17] 0.434 µM | GI50 [18] 0.737 µM | GI50 [20] 1.19 µM | GI50 [21] 2.51 µM | GI50 [24] 0.601 µM | GI50 [26] 1.17 µM | GI50 [27] 0.939 µM | GI50 [32] 0.727 µM | GI50 [33] 13.1 µM | GI50 [34] 0.973 µM | GI50 [37] 0.547 µM | GI50 [38] 0.592 µM | GI50 [39] 1.37 µM | GI50 [42] 0.433 µM | GI50 [43] 0.434 µM | GI50 [44] 0.475 µM | GI50 [45] 0.511 µM | GI50 [46] 0.953 µM | GI50 [50] 1.24 µM | GI50 [52] 0.809 µM
36.4 µM: TGI [13]
20.3 µM: TGI [46]
0.818 µM: TGI [47]
18.2 µM: TGI [52]
13.1 µM: TGI [12]
14.1 µM: TGI [41]
15 µM: TGI [23]
16.2 µM: TGI [16]
19.8 µM: TGI [18]
17.3 µM: TGI [34]
17 µM: TGI [14]
16.6 µM: TGI [43]
18 µM: TGI [32]
32.7 µM: TGI [38]
20.1 µM: TGI [29]
14.4 µM: TGI [15]

COc1ccc(-c2cc(-c3cc(Cl)ccc3Cl)nc3n[nH]c(N)c23)cc1
39.3 µM: TGI [36]
90.7 µM: TGI [25]
> 100 µM: TGI [3] | TGI [53] | TGI [5] | TGI [8] | TGI [9] | TGI [54] | TGI [10] | TGI [11] | TGI [12] | TGI [13] | TGI [14] | TGI [15] | TGI [16] | TGI [21] | TGI [56] | TGI [23] | TGI [24] | TGI [26] | TGI [27] | TGI [57] | TGI [29] | TGI [30] | TGI [32] | TGI [58] | TGI [33] | TGI [34] | TGI [35] | TGI [37] | TGI [38] | TGI [39] | TGI [40] | TGI [41] | TGI [44] | TGI [45] | TGI [46] | TGI [47] | TGI [49] | TGI [51] | TGI [52]
34.6 µM: TGI [50]
inactive: GI50 [1] 25.3 µM | GI50 [2] 22.8 µM | GI50 [3] 63.4 µM | GI50 [4] 4.05 µM | GI50 [53] 41.9 µM | GI50 [5] 26 µM | GI50 [7] 21 µM | GI50 [8] 22.3 µM | GI50 [9] 31.8 µM | GI50 [54] 46.8 µM | GI50 [10] 32.7 µM | GI50 [11] 8.95 µM | GI50 [12] 3.45 µM | GI50 [55] 2.65 µM | GI50 [13] 35.9 µM | GI50 [14] 8.16 µM | GI50 [15] 36 µM | GI50 [16] 20.1 µM | GI50 [17] 14.4 µM | GI50 [18] 19.3 µM | GI50 [19] 10.1 µM | GI50 [20] 4.32 µM | GI50 [21] 15.6 µM | GI50 [56] 29.5 µM | GI50 [22] 8.82 µM | GI50 [23] 30.9 µM | GI50 [24] 30.8 µM | GI50 [25] 31 µM | GI50 [26] 28.3 µM | GI50 [27] 27.9 µM | GI50 [57] 70.4 µM | GI50 [28] 6.32 µM | GI50 [29] 20.9 µM | GI50 [30] 29.5 µM | GI50 [31] 17.3 µM | GI50 [32] 36.9 µM | GI50 [58] 58.2 µM | GI50 [33] 41.2 µM | GI50 [34] 28.8 µM | GI50 [35] 11.6 µM | GI50 [36] 6.68 µM | GI50 [37] 36.1 µM | GI50 [38] 32 µM | GI50 [39] 38.1 µM | GI50 [40] 6.62 µM | GI50 [41] 15.8 µM | GI50 [42] 14.7 µM | GI50 [43] 8.26 µM | GI50 [44] 34.5 µM | GI50 [45] 34.6 µM | GI50 [46] 37.8 µM | GI50 [47] 34.6 µM | GI50 [48] 25.2 µM | GI50 [49] 6.32 µM | GI50 [50] 15.2 µM | GI50 [51] 18 µM | GI50 [52] 34 µM
57.5 µM: TGI [7]
59 µM: TGI [48]
6.94 µM: TGI [55]
84.6 µM: TGI [42]
24.4 µM: TGI [4]
70.2 µM: TGI [2]
49.3 µM: TGI [31]
61.9 µM: TGI [22]
54.1 µM: TGI [18]
52.5 µM: TGI [19]
24.5 µM: TGI [20]
83.6 µM: TGI [43]
34.5 µM: TGI [17]
29.3 µM: TGI [28]
87 µM: TGI [1]
